# Measured values as given in patent US12227500B2, “Substituted pyrrolo[2,3-b]pyridines for suppressing toxic endoplasmic reticulum stress” (THE TRUSTEES OF COLUMBIA UNIVERSITY IN THE CITY OF NEW YORK, priority 2018, dated 2025).
# Where two headings read alike, the source gives them in different places.
# What was measured:
# Experiment in all cases: Radiolabeled ATP kinase assay, panel of 371 kinases (Table S6)
# Assay type in all cases: biochemical
# [1] = target: T1, panel of 371 human kinases (Homo sapiens, UniProt P41743); conditions: PKCiota; 0.1 μM; 10 μM ATP; read-out: % Enzyme Activity (relative to DMSO controls)
# T1 construct: purchased Reaction Biology Corp
# Description: (§1) ; FIG. 38C). […]. Further targeted analyses, such as genetic knock-down or knock-out, may be warranted to parse the role of these additional kinases in our model of neurodegeneration.
# [2] = target: T2, panel of 371 human kinases (Homo sapiens, UniProt P43250); conditions: GRK6; 0.1 μM; 10 μM ATP; read-out: % Enzyme Activity (relative to DMSO controls)
# T2 construct: purchased Reaction Biology Corp
# Description: as §1
# [3] = target: T3, panel of 371 human kinases (Homo sapiens, UniProt P49137); conditions: MAPKAPK2; 0.1 μM; 10 μM ATP; read-out: % Enzyme Activity (relative to DMSO controls)
# T3 construct: purchased Reaction Biology Corp
# Description: as §1
# [4] = target: T4, panel of 371 human kinases (Homo sapiens, UniProt Q8IVT5); conditions: KSR1; 0.1 μM; 10 μM ATP; read-out: % Enzyme Activity (relative to DMSO controls)
# T4 construct: purchased Reaction Biology Corp
# Description: as §1
# [5] = target: T5, panel of 371 human kinases (Homo sapiens, UniProt O95382); conditions: MEKK6; 0.1 μM; 10 μM ATP; read-out: % Enzyme Activity (relative to DMSO controls)
# T5 construct: purchased Reaction Biology Corp
# Description: as §1
# [6] = target: T6, panel of 371 human kinases (Homo sapiens, UniProt P49841); conditions: GSK3b; 0.1 μM; 10 μM ATP; read-out: % Enzyme Activity (relative to DMSO controls)
# T6 construct: purchased Reaction Biology Corp
# Description: as §1
# [7] = target: T7, panel of 371 human kinases (Homo sapiens, UniProt P11309); conditions: PIM1; 0.1 μM; 10 μM ATP; read-out: % Enzyme Activity (relative to DMSO controls)
# T7 construct: purchased Reaction Biology Corp
# Description: as §1
# [8] = target: T8, panel of 371 human kinases (Homo sapiens, UniProt Q5TCX8); conditions: MLK4; 0.1 μM; 10 μM ATP; read-out: % Enzyme Activity (relative to DMSO controls)
# T8 construct: purchased Reaction Biology Corp
# Description: as §1
# [9] = target: T9, panel of 371 human kinases (Homo sapiens, UniProt Q86Z02); conditions: HIPK1; 0.1 μM; 10 μM ATP; read-out: % Enzyme Activity (relative to DMSO controls)
# T9 construct: purchased Reaction Biology Corp
# Description: as §1
# [10] = target: T10, panel of 371 human kinases (Homo sapiens, UniProt P48729); conditions: CK1a1; 0.1 μM; 10 μM ATP; read-out: % Enzyme Activity (relative to DMSO controls)
# T10 construct: purchased Reaction Biology Corp
# Description: as §1
# [11] = target: T11, panel of 371 human kinases (Homo sapiens, UniProt P53778); conditions: P38g; 0.1 μM; 10 μM ATP; read-out: % Enzyme Activity (relative to DMSO controls)
# T11 construct: purchased Reaction Biology Corp
# Description: as §1
# [12] = target: T12, panel of 371 human kinases (Homo sapiens, UniProt Q9UBE8); conditions: NLK; 0.1 μM; 10 μM ATP; read-out: % Enzyme Activity (relative to DMSO controls)
# T12 construct: purchased Reaction Biology Corp
# Description: as §1
# [13] = target: T13, panel of 371 human kinases (Homo sapiens, UniProt O75676); conditions: MSK2/RPS6KA4; 0.1 μM; 10 μM ATP; read-out: % Enzyme Activity (relative to DMSO controls)
# T13 construct: purchased Reaction Biology Corp
# Description: as §1
# [14] = target: T14, panel of 371 human kinases (Homo sapiens, UniProt P41279); conditions: COT1/MAP3K8; 0.1 μM; 10 μM ATP; read-out: % Enzyme Activity (relative to DMSO controls)
# T14 construct: purchased Reaction Biology Corp
# Description: as §1
# [15] = target: T15, panel of 371 human kinases (Homo sapiens, UniProt P23443); conditions: p70S6K/RPS6KB1; 0.1 μM; 10 μM ATP; read-out: % Enzyme Activity (relative to DMSO controls)
# T15 construct: purchased Reaction Biology Corp
# Description: as §1
# [16] = target: T16, panel of 371 human kinases (Homo sapiens, UniProt Q14680); conditions: MELK; 0.1 μM; 10 μM ATP; read-out: % Enzyme Activity (relative to DMSO controls)
# T16 construct: purchased Reaction Biology Corp
# Description: as §1
# [17] = target: T17, panel of 371 human kinases (Homo sapiens, UniProt P51955); conditions: NEK2; 0.1 μM; 10 μM ATP; read-out: % Enzyme Activity (relative to DMSO controls)
# T17 construct: purchased Reaction Biology Corp
# Description: as §1
# [18] = target: T18, panel of 371 human kinases (Homo sapiens, UniProt Q99683); conditions: ASK1/MAP3K5; 0.1 μM; 10 μM ATP; read-out: % Enzyme Activity (relative to DMSO controls)
# T18 construct: purchased Reaction Biology Corp
# Description: as §1
# [19] = target: T19, panel of 371 human kinases (Homo sapiens, UniProt Q13976); conditions: PKG1a; 0.1 μM; 10 μM ATP; read-out: % Enzyme Activity (relative to DMSO controls)
# T19 construct: purchased Reaction Biology Corp
# Description: as §1
# [20] = target: T20, panel of 371 human kinases (Homo sapiens, UniProt Q16539); conditions: P38a/MAPK14; 0.1 μM; 10 μM ATP; read-out: % Enzyme Activity (relative to DMSO controls)
# T20 construct: purchased Reaction Biology Corp
# Description: as §1
# [21] = target: T21, panel of 371 human kinases (Homo sapiens, UniProt Q6P2M8); conditions: CAMK1b; 0.1 μM; 10 μM ATP; read-out: % Enzyme Activity (relative to DMSO controls)
# T21 construct: purchased Reaction Biology Corp
# Description: as §1
# [22] = target: T22, panel of 371 human kinases (Homo sapiens, UniProt Q5S007); conditions: LRRK2; 0.1 μM; 10 μM ATP; read-out: % Enzyme Activity (relative to DMSO controls)
# T22 construct: purchased Reaction Biology Corp
# Description: as §1
# [23] = target: T23, panel of 371 human kinases (Homo sapiens, UniProt Q9Y2K2); conditions: SIK3; 0.1 μM; 10 μM ATP; read-out: % Enzyme Activity (relative to DMSO controls)
# T23 construct: purchased Reaction Biology Corp
# Description: as §1
# [24] = target: T24, panel of 371 human kinases (Homo sapiens, UniProt P11802); conditions: 0.1 μM, 10 μM ATP, read-out: % Enzyme Activity (relative to DMSO controls)
# T24 construct: purchased Reaction Biology Corp
# Description: as §1
# T24 sequence (P11802 whole entry): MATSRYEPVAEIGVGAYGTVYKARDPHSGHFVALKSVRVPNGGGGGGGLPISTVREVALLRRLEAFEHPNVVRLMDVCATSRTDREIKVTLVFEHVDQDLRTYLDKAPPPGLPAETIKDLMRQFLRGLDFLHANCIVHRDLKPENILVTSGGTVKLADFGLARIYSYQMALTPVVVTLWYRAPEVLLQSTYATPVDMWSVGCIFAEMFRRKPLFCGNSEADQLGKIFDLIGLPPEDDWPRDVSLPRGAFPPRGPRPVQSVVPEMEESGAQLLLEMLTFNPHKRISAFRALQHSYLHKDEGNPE
# T18 sequence (Q99683 whole entry): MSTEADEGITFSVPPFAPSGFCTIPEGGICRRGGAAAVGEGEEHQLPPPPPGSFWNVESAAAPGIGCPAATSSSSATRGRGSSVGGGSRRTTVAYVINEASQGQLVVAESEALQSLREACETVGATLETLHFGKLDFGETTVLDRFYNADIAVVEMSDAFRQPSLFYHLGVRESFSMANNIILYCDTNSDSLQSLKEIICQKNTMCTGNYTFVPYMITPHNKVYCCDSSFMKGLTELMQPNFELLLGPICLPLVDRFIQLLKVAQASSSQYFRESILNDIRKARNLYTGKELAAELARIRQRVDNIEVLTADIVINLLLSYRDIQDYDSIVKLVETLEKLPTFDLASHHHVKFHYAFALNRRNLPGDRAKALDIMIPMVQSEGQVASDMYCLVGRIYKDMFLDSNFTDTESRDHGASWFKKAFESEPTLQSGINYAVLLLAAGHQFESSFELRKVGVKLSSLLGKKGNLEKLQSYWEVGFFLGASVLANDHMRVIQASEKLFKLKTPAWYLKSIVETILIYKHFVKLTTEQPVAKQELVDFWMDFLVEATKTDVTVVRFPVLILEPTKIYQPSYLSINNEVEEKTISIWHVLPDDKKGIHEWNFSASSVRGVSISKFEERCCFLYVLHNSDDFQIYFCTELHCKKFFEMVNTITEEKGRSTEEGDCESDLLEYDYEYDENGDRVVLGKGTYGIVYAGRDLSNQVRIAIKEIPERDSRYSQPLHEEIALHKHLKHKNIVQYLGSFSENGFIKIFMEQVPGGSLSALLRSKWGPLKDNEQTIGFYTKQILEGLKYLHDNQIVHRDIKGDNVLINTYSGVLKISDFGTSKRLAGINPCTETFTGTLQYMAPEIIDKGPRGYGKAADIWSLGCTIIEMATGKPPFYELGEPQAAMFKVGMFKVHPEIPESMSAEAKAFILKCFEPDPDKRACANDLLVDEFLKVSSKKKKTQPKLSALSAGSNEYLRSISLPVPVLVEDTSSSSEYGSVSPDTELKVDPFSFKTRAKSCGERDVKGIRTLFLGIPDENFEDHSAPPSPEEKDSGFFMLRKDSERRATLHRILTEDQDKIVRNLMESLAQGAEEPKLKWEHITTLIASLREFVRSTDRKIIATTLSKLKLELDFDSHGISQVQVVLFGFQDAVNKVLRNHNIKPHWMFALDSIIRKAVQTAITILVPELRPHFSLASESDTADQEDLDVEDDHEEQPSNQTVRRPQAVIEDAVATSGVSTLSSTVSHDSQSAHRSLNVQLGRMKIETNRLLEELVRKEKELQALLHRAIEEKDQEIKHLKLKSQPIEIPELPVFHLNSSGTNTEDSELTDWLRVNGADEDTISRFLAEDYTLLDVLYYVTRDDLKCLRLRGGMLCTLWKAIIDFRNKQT
# T16 sequence (Q14680 whole entry): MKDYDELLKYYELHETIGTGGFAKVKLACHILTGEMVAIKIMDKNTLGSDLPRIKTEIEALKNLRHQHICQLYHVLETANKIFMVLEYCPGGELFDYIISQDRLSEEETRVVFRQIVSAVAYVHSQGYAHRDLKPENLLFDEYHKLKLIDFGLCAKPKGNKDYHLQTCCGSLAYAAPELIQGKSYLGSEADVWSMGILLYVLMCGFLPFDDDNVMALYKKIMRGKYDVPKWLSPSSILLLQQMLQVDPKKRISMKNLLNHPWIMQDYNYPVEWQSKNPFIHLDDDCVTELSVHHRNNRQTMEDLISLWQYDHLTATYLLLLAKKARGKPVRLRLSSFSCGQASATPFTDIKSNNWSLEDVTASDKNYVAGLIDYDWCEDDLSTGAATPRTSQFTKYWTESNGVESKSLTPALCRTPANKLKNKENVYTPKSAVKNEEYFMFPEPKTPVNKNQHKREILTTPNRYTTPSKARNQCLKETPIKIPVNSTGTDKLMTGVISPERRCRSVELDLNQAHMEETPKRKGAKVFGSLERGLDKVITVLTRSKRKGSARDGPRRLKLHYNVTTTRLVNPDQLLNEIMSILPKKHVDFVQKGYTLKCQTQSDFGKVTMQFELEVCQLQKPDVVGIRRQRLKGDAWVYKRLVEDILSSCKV
# T7 sequence (P11309 whole entry): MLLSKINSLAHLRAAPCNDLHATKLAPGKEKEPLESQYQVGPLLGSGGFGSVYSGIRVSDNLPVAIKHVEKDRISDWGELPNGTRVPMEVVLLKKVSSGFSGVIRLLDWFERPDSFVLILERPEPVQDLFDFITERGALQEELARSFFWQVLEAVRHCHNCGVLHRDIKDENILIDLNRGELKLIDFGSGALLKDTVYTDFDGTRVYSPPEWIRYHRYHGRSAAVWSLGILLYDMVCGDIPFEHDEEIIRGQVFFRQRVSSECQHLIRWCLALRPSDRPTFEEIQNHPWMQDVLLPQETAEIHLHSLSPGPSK
# T14 sequence (P41279 whole entry): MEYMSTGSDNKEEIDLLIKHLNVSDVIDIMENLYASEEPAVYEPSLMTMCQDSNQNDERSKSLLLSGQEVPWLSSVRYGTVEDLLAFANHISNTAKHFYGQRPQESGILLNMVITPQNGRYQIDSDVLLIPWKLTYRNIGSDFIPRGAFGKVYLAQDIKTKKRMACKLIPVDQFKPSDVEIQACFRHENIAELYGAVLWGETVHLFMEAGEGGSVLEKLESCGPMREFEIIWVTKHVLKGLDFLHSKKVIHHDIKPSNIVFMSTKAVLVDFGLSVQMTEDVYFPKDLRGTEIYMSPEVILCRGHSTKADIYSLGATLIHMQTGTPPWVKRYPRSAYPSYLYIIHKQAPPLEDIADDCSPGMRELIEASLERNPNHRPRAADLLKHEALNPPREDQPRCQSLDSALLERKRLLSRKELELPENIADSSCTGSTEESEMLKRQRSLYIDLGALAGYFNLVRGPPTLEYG
# T20 sequence (Q16539 whole entry): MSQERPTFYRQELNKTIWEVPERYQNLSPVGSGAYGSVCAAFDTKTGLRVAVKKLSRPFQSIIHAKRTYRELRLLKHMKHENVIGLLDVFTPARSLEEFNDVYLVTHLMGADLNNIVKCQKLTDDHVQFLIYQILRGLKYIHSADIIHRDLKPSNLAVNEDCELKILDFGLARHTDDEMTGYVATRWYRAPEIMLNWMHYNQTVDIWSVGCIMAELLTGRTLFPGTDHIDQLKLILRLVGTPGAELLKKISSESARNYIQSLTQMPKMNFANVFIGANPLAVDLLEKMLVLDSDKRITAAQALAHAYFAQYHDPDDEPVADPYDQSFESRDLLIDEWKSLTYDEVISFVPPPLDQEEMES
# T3 sequence (P49137 whole entry): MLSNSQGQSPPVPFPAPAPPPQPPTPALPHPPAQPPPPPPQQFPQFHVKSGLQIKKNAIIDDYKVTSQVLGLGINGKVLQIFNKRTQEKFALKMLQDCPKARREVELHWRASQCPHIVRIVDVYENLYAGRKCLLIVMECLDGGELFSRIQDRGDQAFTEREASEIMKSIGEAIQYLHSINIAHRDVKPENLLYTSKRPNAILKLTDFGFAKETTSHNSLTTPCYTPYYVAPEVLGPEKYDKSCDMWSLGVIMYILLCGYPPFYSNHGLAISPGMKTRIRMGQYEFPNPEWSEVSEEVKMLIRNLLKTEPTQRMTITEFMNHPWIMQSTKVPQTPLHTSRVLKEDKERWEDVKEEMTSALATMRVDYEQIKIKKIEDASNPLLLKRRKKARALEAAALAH
# T1 sequence (P41743 whole entry): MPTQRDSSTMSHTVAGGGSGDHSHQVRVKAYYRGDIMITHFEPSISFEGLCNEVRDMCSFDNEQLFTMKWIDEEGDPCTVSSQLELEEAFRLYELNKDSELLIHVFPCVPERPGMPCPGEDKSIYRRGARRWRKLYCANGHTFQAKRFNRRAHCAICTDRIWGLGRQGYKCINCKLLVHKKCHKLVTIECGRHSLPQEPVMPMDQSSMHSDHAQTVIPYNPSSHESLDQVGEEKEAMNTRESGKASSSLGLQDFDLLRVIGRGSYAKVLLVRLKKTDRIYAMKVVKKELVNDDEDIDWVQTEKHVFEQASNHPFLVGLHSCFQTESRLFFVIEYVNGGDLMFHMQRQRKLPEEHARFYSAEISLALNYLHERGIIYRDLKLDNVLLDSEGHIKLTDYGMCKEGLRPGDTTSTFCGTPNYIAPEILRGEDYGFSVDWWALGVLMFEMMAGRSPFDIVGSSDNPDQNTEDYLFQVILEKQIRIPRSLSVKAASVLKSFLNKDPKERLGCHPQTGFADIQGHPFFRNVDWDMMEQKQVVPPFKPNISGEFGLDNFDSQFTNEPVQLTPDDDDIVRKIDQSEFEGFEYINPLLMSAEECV
# T10 sequence (P48729 whole entry): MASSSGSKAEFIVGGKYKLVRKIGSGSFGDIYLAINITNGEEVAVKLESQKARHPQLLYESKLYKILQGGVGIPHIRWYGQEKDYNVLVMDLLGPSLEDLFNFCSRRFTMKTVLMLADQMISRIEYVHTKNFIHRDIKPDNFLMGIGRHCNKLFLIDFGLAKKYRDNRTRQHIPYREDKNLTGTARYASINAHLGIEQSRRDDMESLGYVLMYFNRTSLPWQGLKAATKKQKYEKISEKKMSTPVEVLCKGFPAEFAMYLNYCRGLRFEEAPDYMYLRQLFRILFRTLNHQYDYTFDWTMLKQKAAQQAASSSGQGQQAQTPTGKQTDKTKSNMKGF
Structure (SMILES),remaining activity at 0.1 µM [1] [%],remaining activity at 0.1 µM [2] [%],remaining activity at 0.1 µM [3] [%],remaining activity at 0.1 µM [4] [%],remaining activity at 0.1 µM [5] [%],remaining activity at 0.1 µM [6] [%],remaining activity at 0.1 µM [7] [%],remaining activity at 0.1 µM [8] [%],remaining activity at 0.1 µM [9] [%],remaining activity at 0.1 µM [10] [%],remaining activity at 0.1 µM [11] [%],remaining activity at 0.1 µM [12] [%],remaining activity at 0.1 µM [13] [%],remaining activity at 0.1 µM [14] [%],remaining activity at 0.1 µM [15] [%],remaining activity at 0.1 µM [16] [%],remaining activity at 0.1 µM [17] [%],remaining activity at 0.1 µM [18] [%],remaining activity at 0.1 µM [19] [%],remaining activity at 0.1 µM [20] [%],also measured
"CN1CCN(Cc2ccc(-c3cnc4[nH]cc(-c5ccc6[nH]ccc6c5)c4c3)cc2)CC1 [Compound 1, 3-(1H-Indol-5-yl)-5-(4-((4-methylpiperazin-1-yl)methyl)phenyl)-1H-pyrrolo[2,3-b]pyridine, reference compound]",100,91.5,96.9,98,91.6,99,93.2,99.9,106,102,108,101,114,101,93.2,48.1,96.2,103,101,105,remaining activity at 0.1 µM [21]: 105%; remaining activity at 0.1 µM [22]: 58.8%; remaining activity at 0.1 µM [23]: 75.5%; remaining activity at 0.1 µM ([24]; CDK4/cyclin D1): 69.2%; remaining activity at 0.1 µM ([24]; CDK4/cyclin D3): 90.9%
"OCCN1CCN(Cc2ccc(-c3cnc4[nH]cc(-c5cccc(Cl)c5)c4c3)cc2)CC1 [Compound 12k, 2-(4-(4-(3-(3-Chlorophenyl)-1H-pyrrolo[2,3-b]pyridin-5-yl)benzyl)piperazin-1-yl)ethan-1-ol]",93,95.2,99.6,97.3,95,89.6,98.5,108,96,91.6,99.7,94.3,110,87.5,99.3,71,92,95.7,108,103,remaining activity at 0.1 µM [21]: 103%; remaining activity at 0.1 µM [22]: 17%; remaining activity at 0.1 µM [23]: 92.3%; remaining activity at 0.1 µM ([24]; CDK4/cyclin D1): 56.4%; remaining activity at 0.1 µM ([24]; CDK4/cyclin D3): 67.2%
